Test results reported in PubChem BioAssay (NCI).
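Results reflect a 48-hour exposure of cells in 96-well plates to compound at five concentrations. Abbreviation: GI50, concentration required for 50% inhibition of growth. TGI: concentration producing complete growth inhibition.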

Legend:
Assay in all cases: NCI tumour cell line growth inhibition, 48 h
[1] = test system: CAKI-1 renal
[2] = test system: LOX IMVI melanoma
[3] = test system: MOLT-4 leukemia
[4] = test system: HCT-116 colon
[5] = test system: ACHN renal
[6] = test system: NCI-H23 lung
[7] = test system: HOP-62 NSCLC
[8] = test system: SN12C renal
[9] = test system: DU-145 prostate
[10] = test system: MDA-MB-231 breast

With `c1ccc(OCc2nnc3n2N=C(c2ccccc2)CS3)cc1` the TGI [1] was > 100 µM, the TGI [2] was > 100 µM and the TGI [3] was > 100 µM. For the same compound, the TGI [4] was > 100 µM, the TGI [5] was > 100 µM and the TGI [6] was > 100 µM. For the same compound, the TGI [7] was > 100 µM and the TGI [8] was > 100 µM.

With `O=c1[nH]cnc2c(COCCO)c[nH]c12` the TGI [1] was > 100 µM, the TGI [2] was > 100 µM and the TGI [3] was > 100 µM. For the same compound, the TGI [5] was > 100 µM, the TGI [6] was > 100 µM and the TGI [7] was > 100 µM. For the same compound, the TGI [8] was > 100 µM.

In the case of `OCCN(CCO)c1cccc(N(CCO)CCO)n1`, the TGI [1] is reported as > 100 µM, the TGI [2] is reported as > 100 µM and the TGI [3] is reported as > 100 µM. For the same compound, the TGI [4] was > 100 µM, the TGI [5] was > 100 µM and the TGI [7] was > 100 µM.

For `COc1cc(C(C)O)c[n+](CCC2CNc3ccccc32)c1` (stereo not given), the TGI [1] was > 100 µM, the TGI [2] was > 100 µM and the TGI [3] was > 100 µM. For the same compound, the TGI [4] was > 100 µM, the TGI [5] was > 100 µM and the TGI [6] was > 100 µM. The TGI [7] was > 100 µM and the TGI [8] was > 100 µM.

Work on `CCn1c(CCl)nc2c1C(=O)c1ccccc1C2=O` yielded a TGI [9] of 9.02 µM, a TGI [4] of 4.32 µM and a TGI [5] of 13.2 µM. For the same compound, the TGI [6] was 3.12 µM, the TGI [7] was 4.95 µM and the TGI [8] was 2.97 µM.

With `COc1cccc(N2C(=O)C3C4C=C5c6ccccc6N(c6ccccc6)C5(C3C2=O)[C@H]2C(=O)N(c3cccc(OC)c3)C(=O)[C@@H]42)c1` (stereo not given in full) the TGI [1] was > 100 µM, the TGI [2] was > 100 µM and the TGI [3] was > 100 µM. For the same compound, the TGI [4] was > 100 µM, the TGI [6] was > 100 µM and the TGI [7] was > 100 µM. For the same compound, the TGI [8] was > 100 µM.

`COCCOCCOCc1n(Cc2ccc3ccccc3n2)c2ccccc2[n+]1Cc1ccc2ccccc2n1` showed a GI50 [9] of 2.67 µM, a TGI [9] of 41.8 µM and a GI50 [2] of 1.14 µM. It also gave a TGI [2] of 10.4 µM, a GI50 [3] of 1.88 µM and a TGI [3] of 13 µM. It also gave a GI50 [4] of 1.26 µM, a TGI [4] of 11.7 µM and a GI50 [5] of 13.7 µM. For the same compound, the TGI [5] was 81.7 µM, the GI50 [6] was 0.657 µM and the TGI [6] was 12.2 µM. It also gave a GI50 [10] of 1.02 µM, a TGI [10] of 9.58 µM and a GI50 [7] of 2.44 µM. For the same compound, the TGI [7] was 14.3 µM, the GI50 [8] was 0.306 µM and the TGI [8] was 11.1 µM.

For `COc1ccc(NCC(=O)Nn2c(-c3ccccc3)nc3ccccc3c2=O)cc1`, the TGI [9] was > 100 µM, the TGI [2] was 44 µM and the TGI [3] was > 100 µM. The TGI [4] was > 10 µM, the TGI [5] was > 100 µM and the TGI [6] was > 100 µM. For the same compound, the TGI [10] was 84.4 µM, the TGI [7] was > 100 µM and the TGI [8] was > 100 µM.

For `COC(=O)Cc1cc(=O)[nH]c2c1C(=O)CCC2`, the TGI [3] was > 100 µM, the TGI [5] was > 100 µM and the TGI [6] was > 100 µM. For the same compound, the TGI [8] was > 100 µM.

For `Cc1ccc(S(=O)(=O)N/N=C/C(C)C)cc1`, the TGI [1] was > 100 µM, the TGI [2] was > 100 µM and the TGI [3] was > 100 µM. The TGI [4] was > 100 µM, the TGI [5] was > 100 µM and the TGI [6] was > 100 µM. For the same compound, the TGI [7] was > 100 µM and the TGI [8] was > 100 µM.

With `N#Cc1cccc(C=NC23CC4CC(CC(C4)C2)C3)c1` the TGI [1] was > 100 µM, the TGI [2] was > 100 µM and the TGI [3] was > 100 µM. The TGI [4] was > 100 µM, the TGI [5] was > 100 µM and the TGI [6] was > 100 µM. For the same compound, the TGI [7] was > 100 µM and the TGI [8] was > 100 µM.

Compound `COc1ccc(C(=O)C#Cc2c[nH]c(=O)[nH]c2=O)cc1` has a TGI [1] of 24.8 µM, a TGI [2] of 9.52 µM and a TGI [3] of 8.19 µM. For the same compound, the TGI [4] was 18.3 µM, the TGI [5] was 30.5 µM and the TGI [6] was 32.8 µM. It also gave a TGI [7] of 47.7 µM and a TGI [8] of 19.4 µM.

With `C=C(C(=C)P(=S)(C(C)C)C(C)C)P(=S)(C(C)C)C(C)C` the TGI [1] was > 100 µM, the TGI [2] was > 100 µM and the TGI [3] was > 100 µM. For the same compound, the TGI [4] was > 100 µM, the TGI [5] was > 100 µM and the TGI [6] was > 100 µM. For the same compound, the TGI [7] was > 100 µM and the TGI [8] was > 100 µM.
